ChEMBL document CHEMBL3244052, “Conformational analogues of dopamine. Synthesis and pharmacological activity of (E)- and (Z)-2-(3,4-dihydroxyphenyl)cyclopropylamine hydrochlorides” (J Med Chem, 1979)
The source made the active and inactive calls. No cut-off for these calls is given here.

Experiments:
[1] = Agonist activity at alpha-adrenergic receptor in rabbit thoracic aorta assessed as […] contraction; assay type: tissue-based, Oryctolagus cuniculus
Canis familiaris [2] = test: Cardiac stimulant activity in iv dosed dog assessed as dose producing 50% increase in contractile force; assay type: functional, Canis lupus familiaris
Canis familiaris [3] = test: Cardiac stimulant activity in iv dosed dog assessed as increase in heart rate; assay type: functional, Canis lupus familiaris
Canis familiaris [4] = test: Dopaminergic activity in mongrel dog assessed as renal vasodilation up to 4.96 x 10^-6 M administered to renal artery; assay type: functional, organism-based; details: Canis lupus familiaris

Compound | EC50 [1] [×10⁻⁷ mol] | Activity (Canis familiaris [2]) [×10⁻⁸ mol/kg] | Activity (Canis familiaris [3]) [bpm] | ED50 (Canis familiaris [4])
CNC[C@H](O)c1cccc(O)c1.Cl [PHENYLEPHRINE HYDROCHLORIDE] | 2.3 | – | – | –
CC(C)NCC(O)c1ccc(O)c(O)c1.Cl (centres undefined) [ISOPROTERENOL HYDROCHLORIDE] | – | 0.014 | 16 | –
Cl.NCCc1ccc(O)c(O)c1 [DOPAMINE HYDROCHLORIDE] | 102 | 4.8 | 5 | –
Cl.N[C@@H]1C[C@H]1c1ccc(O)c(O)c1 (racemic) | 94 | 19.5 | -2 | inactive
Cl.N[C@@H]1C[C@@H]1c1ccc(O)c(O)c1 (racemic) | 457 | 312.3 | 32 | inactive
